According to US8048825B2, “Haloalkylsulfonanilide derivatives or salt thereof, herbicide comprising the derivatives as active ingredient, and use of the herbicide” (Nihon Nohyaku Co., Ltd., priority 2006, dated 2011):

Legend:
[1] = test system: Echinochloa crus-galli; experiment: Herbicidal effect on paddy field weeds of post-emergence stage (Post), Test Example 2; assay type: in vivo; conditions: one-leaf stage, 1000 g/ha as active ingredient, examined after 21 days
Procedure, shortened: (§1)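 Post-emergence paddy test: formulated compound added to 5 cm standing water at 1000 g/ha a.i. when weeds reached one-leaf stage in clay loam pots in greenhouse. Growth inhibition rated 21 days later versus untreated control on a 0 (0%) to 5 (100%) scale.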

[2] = test system: Scirpus juncoides; experiment: as above; assay type: in vivo; conditions: one-leaf stage, 1000 g/ha as active ingredient, examined after 21 days
Procedure, shortened: as §1

[3] = test system: Lindernia procumbens; experiment: as above; assay type: in vivo; conditions: one-leaf stage, 1000 g/ha as active ingredient, examined after 21 days
Procedure, shortened: as §1

[4] = test system: Scirpus juncoides; experiment: Herbicidal efficacy on paddy field weeds of pre-emergence stage (Pre), Test Example 1; assay type: in vivo; conditions: 1000 g/ha as active ingredient, examined after 21 days
Procedure, shortened: (§2)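 Pre-emergence paddy test: 1000 g/ha active ingredient, formulated and water-diluted, dropped onto 5 cm floodwater one day after sowing both weeds in clay loam. After 21 days in greenhouse, inhibition relative to untreated control rated on 0 (0%) to 5 (100%) scale.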

[5] = test system: Lindernia procumbens; experiment: as above; assay type: in vivo; conditions: 1000 g/ha as active ingredient, examined after 21 days
Procedure, shortened: as §2

[6] = test system: transplanted paddy-rice (rice species: Nihonbare); experiment: Test of phytotoxicity on transplanted paddy-rice, Test Example 3; assay type: in vivo; conditions: two-leaf stage seedlings, 1000 g/ha as active ingredient, applied 5 days after transplantation, examined after 21 days
Text: Criteria for herbicidal efficacy (growth inhibiting degree) and phytotoxicity. • 5 . . . 100% herbicidal effect, phytotoxicity. • 4 . . . 90%-99% herbicidal effect, phytotoxicity. • 3 . . . 70%-89% herbicidal effect, phytotoxicity. • 2 . . . 40%-69% herbicidal effect, phytotoxicity. • 1 . . . 1%-39% herbicidal effect, phytotoxicity. • 0 . . . 0% herbicidal effect, phytotoxicity.
75 cm^2 plastic pots were filled with the soil (clay loam) and filled with water depth of 5 cm and 2 rice plant seedlings (rice species: Nihonbare) at two-leaf stage were transplanted therein. They were brought up in a greenhouse and, after five days from the transplantation, predetermined effective dosage (1000 g/ha in terms of active ingredient) of formulations comprising a compound of the present invention as an active ingredient was applied to the pot water. Then, they were brought up in a greenhouse and the phytotoxicity was examined after 21 days from the treatment by comparing with the result of an untreated group according to the criteria of Test Example 1. In the table, “-” means that the test was not performed.

melting point	SMILES	Echinochloa crus-galli post (herbicidal effect) [1]	Scirpus juncoides post (herbicidal effect) [2]	Lindernia procumbens post (herbicidal effect) [3]	Scirpus juncoides pre (herbicidal effect) [4]	Lindernia procumbens pre (herbicidal effect) [5]	Rice (phytotoxicity) [6]
	CC(C)(C)COC(=O)N(c1ccccc1CN1CCC(C)(C2CCC2)OC1=O)S(=O)(=O)C(F)(F)F (stereo not shown) [Compound 1-388]	5 (100% herbicidal effect, phytotoxicity)	4 (90%-99% herbicidal effect, phytotoxicity)	5 (100% herbicidal effect, phytotoxicity)	5 (100% herbicidal effect, phytotoxicity)	5 (100% herbicidal effect, phytotoxicity)	
	COC(=O)N(c1ccccc1CN1CCC(C)(c2ccccc2C(F)(F)F)OC1=O)S(=O)(=O)C(F)(F)F (stereo not shown) [Compound 1-394]	4 (90%-99% herbicidal effect, phytotoxicity)	4 (90%-99% herbicidal effect, phytotoxicity)	5 (100% herbicidal effect, phytotoxicity)	5 (100% herbicidal effect, phytotoxicity)	5 (100% herbicidal effect, phytotoxicity)	
	CCOC(=O)N(c1ccccc1CN1CCC(C)(c2ccccc2C(F)(F)F)OC1=O)S(=O)(=O)C(F)(F)F (stereo not shown) [Compound 1-395]	4 (90%-99% herbicidal effect, phytotoxicity)	4 (90%-99% herbicidal effect, phytotoxicity)	5 (100% herbicidal effect, phytotoxicity)	5 (100% herbicidal effect, phytotoxicity)	5 (100% herbicidal effect, phytotoxicity)	
	CCOC(=O)N(c1ccccc1CN1CCC(C)(c2ccccc2C)OC1=O)S(=O)(=O)C(F)(F)F (stereo not shown) [Compound 1-406]	5 (100% herbicidal effect, phytotoxicity)	4 (90%-99% herbicidal effect, phytotoxicity)	5 (100% herbicidal effect, phytotoxicity)	5 (100% herbicidal effect, phytotoxicity)	5 (100% herbicidal effect, phytotoxicity)	
	CCC1(C(F)(F)F)CCN(Cc2ccccc2N(C(=O)OCCCl)S(=O)(=O)C(F)(F)F)C(=O)O1 (stereo not shown) [Compound 1-415]	5 (100% herbicidal effect, phytotoxicity)	4 (90%-99% herbicidal effect, phytotoxicity)	5 (100% herbicidal effect, phytotoxicity)	5 (100% herbicidal effect, phytotoxicity)	5 (100% herbicidal effect, phytotoxicity)	
	CCC1(CC(C)C)CCN(Cc2ccccc2NS(=O)(=O)C(F)(F)F)C(=O)O1 (stereo not shown) [Compound 1-417]	4 (90%-99% herbicidal effect, phytotoxicity)	4 (90%-99% herbicidal effect, phytotoxicity)	5 (100% herbicidal effect, phytotoxicity)	5 (100% herbicidal effect, phytotoxicity)	5 (100% herbicidal effect, phytotoxicity)	
	CC1(C)CCN(Cc2ccccc2N(C(=O)Oc2ccccc2)S(=O)(=O)C(F)(F)F)C(=O)O1 [Compound 1-506]	4 (90%-99% herbicidal effect, phytotoxicity)	4 (90%-99% herbicidal effect, phytotoxicity)	5 (100% herbicidal effect, phytotoxicity)	5 (100% herbicidal effect, phytotoxicity)	5 (100% herbicidal effect, phytotoxicity)	
	CCCOC(=O)N(c1ccccc1CN1CCCOC1=O)S(=O)(=O)C(F)(F)F [Compound No. 1-4, 3-{2-[N-(propoxycarbonyl)-N -(trifluoromethanesulfonyl)amino]benzyl)-[1,3]-oxazinan-2-one]		4 (90%-99% herbicidal effect, phytotoxicity)		4 (90%-99% herbicidal effect, phytotoxicity)	4 (90%-99% herbicidal effect, phytotoxicity)	3 (70%-89% herbicidal effect, phytotoxicity)
129.9 °C	CC1(C)COC(=S)N(Cc2ccccc2NS(=O)(=O)C(F)(F)F)C1 [Compound No. 1-34, 5,5-dimethyl-3-[2-(trifluoromethanesulfonylamino)benzyl]-[1,3]-oxazinan-2-thione]		4 (90%-99% herbicidal effect, phytotoxicity)		4 (90%-99% herbicidal effect, phytotoxicity)	4 (90%-99% herbicidal effect, phytotoxicity)	
	COC(=O)N(c1ccccc1CN1CC(C)(C)COC1=S)S(=O)(=O)C(F)(F)F [Compound No. 1-35, 5,5-dimethyl-3-(2-[N-(methoxycarbonyl)-N-(trifluoromethanesulfonyl)amino]benzyl)-[1,3]-oxazinane-2-thione]		4 (90%-99% herbicidal effect, phytotoxicity)		4 (90%-99% herbicidal effect, phytotoxicity)	4 (90%-99% herbicidal effect, phytotoxicity)	2 (40%-69% herbicidal effect, phytotoxicity)
152 °C	O=C1OC(c2ccccc2)CCN1Cc1ccccc1NS(=O)(=O)C(F)(F)F (stereo not shown) [Compound No. 1-239, 6-phenyl-3-[2-(trifluoromethanesulfonylamino)benzyl]-[1,3]-oxazinan-2-one]		4 (90%-99% herbicidal effect, phytotoxicity)			5 (100% herbicidal effect, phytotoxicity)	
115.6 °C	CCOCN(c1ccccc1CN1CCC(c2ccccc2)OC1=O)S(=O)(=O)C(F)(F)F (stereo not shown) [Compound No. 1-248, 6-phenyl-3-{2-[N-(ethoxymethyl)-N-(trifluoromethanesulfonyl)amino]benzyl)-[1,3]-oxazinan-2-one]						
	CC(C)COC(=O)N(c1ccccc1CN1CCC(C)COC1=O)S(=O)(=O)C(F)(F)F (stereo not shown) [Compound No. 2-28, 3-(2-[N-(isobutoxycarbonyl)-N-(trifluoromethanesulfonyl)amino]benzyl)-6-methyl-[1,3]-oxazepan-2-one]		4 (90%-99% herbicidal effect, phytotoxicity)		4 (90%-99% herbicidal effect, phytotoxicity)	4 (90%-99% herbicidal effect, phytotoxicity)	3 (70%-89% herbicidal effect, phytotoxicity)
